Data from patent US6228836A, “Permucous preparation” (Mitsubishi-Tokyo Pharmaceuticals, Inc., priority 1997, dated 2001).

Parameters: species or system rats
Conditions: rat, in vivo
Method: Eight-week-old female rats were used, with five per group. The rats were administered 100 μL/kg of the test sample into the nasal cavities once a day, for 7 continuous days. On the 8th day the nasal cavities were extracted, and after dividing them into 3 parts from the nasal cavity opening to the deep end of the nasal cavity, they were fixed with formalin to prepare specimens. After 10-14 days of fixing, a histopathological examination was made of the state of the mucosa, exudation and any bleeding.
Mild irritation was judged when abnormalities were found in the nasal mucosa at sections near the nasal cavity opening, and moderate to severe irritation was judged when the sections where abnormalities were found were further to the deep end. Moderate or greater irritation was also judged when degeneration, ablation, exudation or bleeding was found on the nasal mucosa epithelium at sections near the nasal cavity opening.
As controls there were used physiological saline and commercially available desmopressin (Kyowa Hakko Kogyo, KK.)

Row | SMILES | Nasal cavity mucosa irritation: Mild | Nasal cavity mucosa irritation: Moderate | Nasal cavity mucosa irritation: Normal | Nasal cavity mucosa irritation: Severe | Nasal mucosa irritation, histopathological finding / judgement (in words)
1 | NC(=O)CC[C@@H]1NC(=O)[C@H](Cc2ccccc2)NC(=O)[C@H](Cc2ccc(O)cc2)NC(=O)CCSSC[C@@H](C(=O)N2CCC[C@H]2C(=O)N[C@H](CCCN=C(N)N)C(=O)NCC(N)=O)NC(=O)[C@H](CC(N)=O)NC1=O [Desmopressin, desmopressin] | 0 | 0 | 5 | 0 | No irritation
2 | C[C@H](CCC(=O)O)[C@H]1CC[C@H]2[C@@H]3CC[C@@H]4C[C@H](O)CC[C@]4(C)[C@H]3C[C@H](O)[C@]12C [sodium deoxycholate] |  |  |  |  | irritating effect on the nasal cavity mucosa
